How the values were obtained:
[1] = tested on: amphetamine-induced hypermotility in mice; test: Antagonism of amphetamine-induced hypermotility in mice (Test 1); assay type: in vivo; details: Mus musculus, sc, 1.5 h, test compound s.c., d-amphetamine 2 mg/kg i.p., locomotor activity 90 min, dose reducing motility to midpoint between amphetamine and saline controls
Method: Antagonism of amphetamine-induced hypermotility in mice
A low dose (2 mg/kg) of d-amphetamine administered to mice induced pronounced locomotor activity.
Female NMRI-mice, weighing about 25 g are divided into groups of 4 animals and placed in macrolon cages. The cages are placed on recording arenas in nine sound attenuated boxes with constant light and ventilation. After a familiarization period of 90 minutes the mice are brought up from the cages and treated in the following way; one control group receives saline i.p., one control group receives d-amphetamine sulphate, 2 mg/kg i.p. and test animals are treated s.c. with three different doses of the test compound and immediately thereafter with d-amphetamine 2 mg/kg i.p. Immediately after the administration the macrolon cages with the mice are put back into the test boxes and a computerized equipment records the locomotor activity in the cages for 90 minutes.
For each test compound 4 cages are treated with saline, 4 cages with only d-amphetamine and 6 cages/dose test compound+d-amphetamine. This is the total of three different experiments.
For each treatment group the mean number of counts during 90 minutes following the administration is calculated.
The ED50 -value (mg/kg) is calculated from the dose-response curve by means of linear regression. […]

D2-receptors = target: T1, D2-receptors (Rattus norvegicus, UniProt P61169); test: Affinity to D2-receptors, 3H-spiroperidol ligand (Test 2); assay type: binding; details: 3H-spiroperidol as ligand
T1 construct: from tissue; host or cells: brain membranes
Method: Affinity to D2 -receptors
The binding assay is carried out essentially as described by Leysen et al., (Mol. Pharmacol. 21, 301-14, 1982) using ^3 H-spiroperidol as ligand.

5HT2-receptors = target: T2, 5HT2-receptors (Rattus norvegicus, UniProt P14842); test: Affinity to 5HT2-receptors, 3H-ketanserine ligand (Test 3); assay type: binding; details: 3H-ketanserine as ligand
T2 construct: from tissue; host or cells: brain membranes
Method: Affinity to 5HT2 -receptors
The binding assay is carried out essentially as described by Leysen et al., (Mol. Pharmacol. 21, 301-14, 1982) using ^3 H-ketanserine as ligand.

5-HT2 binding site = details: background statement on known drugs; cited from earlier work

T1 sequence (P61169 whole entry): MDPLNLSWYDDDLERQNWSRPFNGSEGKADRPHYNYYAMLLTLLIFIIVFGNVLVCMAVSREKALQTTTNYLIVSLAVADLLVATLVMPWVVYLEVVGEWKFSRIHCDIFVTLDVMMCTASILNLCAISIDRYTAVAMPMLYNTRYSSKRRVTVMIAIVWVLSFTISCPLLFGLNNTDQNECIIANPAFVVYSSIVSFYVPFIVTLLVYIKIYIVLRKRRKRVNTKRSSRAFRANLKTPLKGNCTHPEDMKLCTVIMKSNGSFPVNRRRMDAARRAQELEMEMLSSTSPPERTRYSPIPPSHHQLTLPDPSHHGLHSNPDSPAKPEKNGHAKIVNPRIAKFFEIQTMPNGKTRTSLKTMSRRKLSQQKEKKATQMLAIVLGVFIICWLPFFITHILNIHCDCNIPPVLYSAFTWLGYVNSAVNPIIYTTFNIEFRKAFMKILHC
T2 sequence (P14842 whole entry): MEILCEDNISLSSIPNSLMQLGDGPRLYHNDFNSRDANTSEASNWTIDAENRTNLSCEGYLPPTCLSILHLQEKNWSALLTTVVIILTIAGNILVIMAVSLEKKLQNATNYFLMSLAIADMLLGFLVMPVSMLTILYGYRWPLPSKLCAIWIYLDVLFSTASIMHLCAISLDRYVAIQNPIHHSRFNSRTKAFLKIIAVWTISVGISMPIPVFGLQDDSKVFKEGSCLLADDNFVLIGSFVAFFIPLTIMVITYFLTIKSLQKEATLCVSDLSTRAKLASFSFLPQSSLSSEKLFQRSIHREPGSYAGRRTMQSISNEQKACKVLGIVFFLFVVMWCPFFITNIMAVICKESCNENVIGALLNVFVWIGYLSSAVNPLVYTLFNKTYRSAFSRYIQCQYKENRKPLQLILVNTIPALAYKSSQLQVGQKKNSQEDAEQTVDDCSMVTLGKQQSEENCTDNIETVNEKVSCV

Row | Structure (SMILES) | ED50 [1] [mg/kg] | Ki (D2-receptors) [nM] | Ki (5HT2-receptors) [nM] | 5HT2 blocking potency / binding site preference (5-HT2 binding site)
1 | NC(=O)c1cccnc1N1CCN(CCCC(c2ccc(F)cc2)c2ccc(F)cc2)CC1 [1:6, 4-[4,4-bis(p-fluorophenyl)butyl]-1-(3-carbamoyl-2-pyridyl)piperazine] | 0.3 | 30 | 2.1 | –
2 | Fc1ccc(C(CCCN2CCCN(c3ccccn3)CC2)c2ccc(F)cc2)cc1 [1:15, 4-[4,4-bis(p-fluorophenyl)butyl]-1-(2-pyridyl)-(1,4-diaza-cycloheptane)] | – | 25 | 1.3 | –
3 | Fc1ccc(C(CCCN2CCN(c3ccccn3)CC2)c2ccc(F)cc2)cc1 [3:1, 4-[4,4-bis(p-fluorophenyl)butyl]-1-(2-pyridyl)-piperazine] | 0.1 | 60 | 5.8 | –
4 | Cc1nc2sccn2c(=O)c1CCN1CCC(=C(c2ccc(F)cc2)c2ccc(F)cc2)CC1 [ritanserine] | – | – | – | labels preferentially the 5-HT2 binding site

Reference: patent US4937245A, “Bisphenylalkylpiperazine derivatives, a method of their preparation and a pharmaceutical preparation” (priority 1987, dated 1990)
